Test results from patent publication US20260021085A1, “CYCLOALKYL CARBOXYLIC ACID DERIVATIVES AS INHIBITORS OF GLYCOGEN SYNTHASE 1 (GYS1) AND METHODS OF USE THEREOF” (Maze Therapeutics, Inc., priority 2022, published 2026).

What was measured:
[1] = target: human GYS2 (Homo sapiens (Human), UniProt P54840); experiment: GYS2 coupled enzyme assay (PK/LDH); type: biochemical; conditions: recombinant hGYS2/GN1 protein; geometric mean of at least 2 assay runs
Excerpt: (§1) The GYS2 coupled enzyme assay is a kinetic biochemical assay that indirectly quantifies the rate of glycogen synthesis by coupling the conversion of GYS2 substrate UDP-glucose into UDP with downstream enzymatic reactions. UDP is released from UDP-glucose as glucose monomers are linked into the growing glycogen strand by GYS2. The coupled assay then proceeds with pyruvate kinase utilizing UDP and phospho (enol) pyruvate (PEP) to form pyruvate. Lactate dehydrogenase then converts pyruvate and NADH into lactate and NAD+. Oxidation of NADH to NAD+ can be measured continuously with a plate reader by quantifying the decrease in NADH absorbance at 340 nm over time.
Compounds that inhibit the hGYS2 enzyme and, subsequently, the downstream conversion of NADH to NAD+, were tested using assay ready plates (black, clear bottom 384 well plates) in a final DMSO reaction volume of 2.5% DMSO. The Assay Buffer contained 50 mM Tris pH 7.5, 2 mM MgCl2, and 100 mM KCl. Fresh stocks of BSA at a final concentration of 0.02% and TCEP 1 mM were added before splitting buffer into hGYS2 buffer and substrate buffer. To the hGYS2 buffer, rabbit liver glycogen was added at a final concentration of 0.2% glycogen. Glucose-6-Phosphate was added at 2 mM, recombinant hGYS2/GN1 protein was added at 200 nM to the substrate buffer, phosphoenolpyruvate (PEP) was added at 2 mM, UDP-Glucose was added at 2 mM, NADH was added at 0.6 mM, and Pyruvate Kinase/Lactate Dehydrogenase was added at 20 units/mL. The reaction was initiated by mixing hGYS2 buffer and substrate buffer at a 1:1 ratio. Both buffers were plated using a liquid dispensing device with hGYS2 buffer plated first followed by the substrate buffer. Plates were spun briefly to eliminate air bubbles and are immediately read in continuous mode at an absorbance of 340 nm, for 10 time points in one-minute increments, for a total of 10 minutes. The slope from these 10 time points was normalized to the positive and negative control wells.
(§2) Unless otherwise specified, IC50 values are reported as the geometric mean of at least 2 assay runs on separate days. […] Unless otherwise specified, IC50 values are reported as the geometric mean of at least two assay runs on separate days. Each run represents the average of a technical replicate, where each compound was assayed twice in the same plate.

[2] = target: human GYS1 (Homo sapiens (Human), UniProt P13807); experiment: GYS1 coupled enzyme assay (PK/LDH); type: biochemical; conditions: recombinant hGYS1/GN1 protein; geometric mean of at least 2 assay runs
Sequence of human GYS1 (P13807 whole entry): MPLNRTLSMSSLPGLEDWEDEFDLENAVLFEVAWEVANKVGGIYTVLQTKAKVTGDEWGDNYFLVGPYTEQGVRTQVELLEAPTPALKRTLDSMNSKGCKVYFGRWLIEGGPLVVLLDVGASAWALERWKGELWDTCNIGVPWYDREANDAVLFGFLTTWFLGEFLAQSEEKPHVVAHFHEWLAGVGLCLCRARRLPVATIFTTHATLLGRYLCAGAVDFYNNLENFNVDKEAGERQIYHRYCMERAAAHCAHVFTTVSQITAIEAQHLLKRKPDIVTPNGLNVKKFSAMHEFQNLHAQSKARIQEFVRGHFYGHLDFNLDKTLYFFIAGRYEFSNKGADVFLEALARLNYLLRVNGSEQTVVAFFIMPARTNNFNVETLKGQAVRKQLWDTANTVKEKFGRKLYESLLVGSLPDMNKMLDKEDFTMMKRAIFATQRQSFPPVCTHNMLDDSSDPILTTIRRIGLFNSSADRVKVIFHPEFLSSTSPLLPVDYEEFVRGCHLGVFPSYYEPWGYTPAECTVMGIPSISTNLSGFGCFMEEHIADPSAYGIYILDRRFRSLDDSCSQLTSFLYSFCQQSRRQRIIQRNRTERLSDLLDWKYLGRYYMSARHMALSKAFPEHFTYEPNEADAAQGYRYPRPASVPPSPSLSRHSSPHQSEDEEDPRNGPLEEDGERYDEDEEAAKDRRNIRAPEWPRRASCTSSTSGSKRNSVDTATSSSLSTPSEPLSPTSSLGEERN
Sequence of human GYS1 (P46976 whole entry partner): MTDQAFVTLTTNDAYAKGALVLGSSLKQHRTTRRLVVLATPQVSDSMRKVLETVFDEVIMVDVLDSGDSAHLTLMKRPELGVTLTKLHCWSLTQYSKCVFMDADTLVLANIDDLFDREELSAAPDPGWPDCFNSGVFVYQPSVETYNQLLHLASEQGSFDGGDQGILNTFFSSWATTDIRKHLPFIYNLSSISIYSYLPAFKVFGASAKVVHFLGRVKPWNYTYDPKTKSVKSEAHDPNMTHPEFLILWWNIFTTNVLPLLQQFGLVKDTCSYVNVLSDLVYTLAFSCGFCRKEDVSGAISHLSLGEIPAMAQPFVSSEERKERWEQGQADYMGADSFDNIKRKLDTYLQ
Excerpt: as §1, with “GYS1” for “GYS2”, “GYS1.” for “GYS2.”
Compounds that inhibit the hGYS1 enzyme and, subsequently, the downstream conversion of NADH to NAD+, were tested using assay ready plates (black, clear bottom 384 well plates) in a final DMSO reaction volume of 2.5% DMSO. The Assay Buffer contained 50 mM Tris pH 7.5, 2 mM MgCl2, and 100 mM KCl. Fresh stocks of BSA at a final concentration of 0.02% and TCEP at 1 mM were added before splitting buffer into hGYS1 buffer and substrate buffer. To the hGYS1 buffer, rabbit liver glycogen was added at a final concentration of 0.2% glycogen. Glucose-6-Phosphate was added at 1 mM, recombinant hGYS1/GN1 protein was added at 50 nM to the substrate buffer, phosphoenolpyruvate (PEP) was added at 2 mM, UDP-Glucose was added at 0.8 mM, NADH) was added at 0.6 mM, and Pyruvate Kinase/Lactate Dehydrogenase was added at 20 units/mL. The reaction was initiated by mixing hGYS1 buffer and substrate buffer at a 1:1 ratio. Both buffers were plated using a liquid dispensing device with hGYS1 buffer plated first followed by the substrate buffer. Plates were spun briefly to eliminate air bubbles and are immediately read in continuous mode at an absorbance of 340 nm, for 10 time points in one-minute increments, for a total of 10 minutes. The slope from these 10 time points was normalized to the positive and negative control wells.
Unless otherwise specified, IC50 values are reported as the geometric mean of at least 2 assay runs on separate days. Each run represents the average of a technical replicate, where each compound was assayed twice in the same plate.

[3] = target: hGYS1 enzyme, glycogen synthesis in HeLa cells (Homo sapiens (Human), UniProt P13807); experiment: GYS1 cell based assay (glycogen synthesis in HeLa cells, Glucose-glo); conditions: starved HeLa cells, 24 h incubation; geometric mean of at least 2 assay runs; read-out: Cellular IC50
Sequence of hGYS1 enzyme, glycogen synthesis in HeLa cells (P13807 whole entry): as the sequence (P13807 whole entry) above
Excerpt: The GYS1 cell based assay is a bioluminescent assay that quantifies the glucose resulting from glycogen digestion; the quantified glucose is an indirect measure of GYS1 glycogen synthesis. Newly synthesized glycogen is digested using Glucoamylase; the resulting glucose is quantified by using the Glucose-glo assay kit from Promega. Glucose-glo works by coupling glucose oxidation and NADH production with a bioluminescent system that is activated with NADH. Glucose is oxidized by Glucose dehydrogenase and the reaction reduces NAD+ to NADH; NADH activates Reductase which reduces a pro-luciferin Reductase Substrate to luciferin. Luciferin is detected in a luciferase reaction using Ultra-Glo rLuciferase and ATP, and the luminesce produced is proportional to the glucose in the sample. The luminescence is measured as a single point read in a plate reader.
Compounds that inhibit the hGYS1 enzyme and, subsequently, the glycogen synthesis in cells, were tested using assay ready plates (white, clear bottom 384 well plates) in a final DMSO reaction volume of 1% DMSO. Compounds in the assay ready plates were mixed with media with no additives, except for 20 mM glucose prior to cell addition. HeLa cells were starved in media with no additives, except for 1× Glutamax for 24 h. Starved HeLa cells were plated, in a 1:1 ratio to the media in the assay ready plate and incubated for 24 h at 37° C. and 5% CO2. Cells were washed in 1×PBS buffer and lysed in lysis buffer containing 50% 1×PBS and 25% 0.3 N HCl of the final volume in the well or reaction volume; cells were incubated with lysis buffer for 10 minutes and quenched with the remaining 25% of the reaction volume that consisted of 450 mM Tris pH 8.0. Lysates were mixed in a 1:1 ratio with Glucoamylase in 100 mM Sodium Acetate buffer, pH 5.3; the mixture was incubated for 1 h at 37° C. The digested lysate was mixed in a 1:1 ratio with Glucose-glo detection mixture as per vendor recommendations (Luciferase detection buffer, Reductase, Reductase substrate, Glucose dehydrogenase, and NAD) in read-out plates (solid white 384-well plates) and incubated for 1 h at RT. The plates were read using a plate reader with luminescence capabilities. Each compound concentration Relative Luminescence Unit (RLU) was averaged and normalized to the average RLU of the positive and negative controls to obtain a percentage inhibition. The normalized data vs. concentration was plotted; to determine the half-maximal concentration (IC50), the Levenberg-Marquardt algorithm was used to fit a Hill equation to the dose response data.
as §2

Sequence of human GYS2 (P54840 whole entry): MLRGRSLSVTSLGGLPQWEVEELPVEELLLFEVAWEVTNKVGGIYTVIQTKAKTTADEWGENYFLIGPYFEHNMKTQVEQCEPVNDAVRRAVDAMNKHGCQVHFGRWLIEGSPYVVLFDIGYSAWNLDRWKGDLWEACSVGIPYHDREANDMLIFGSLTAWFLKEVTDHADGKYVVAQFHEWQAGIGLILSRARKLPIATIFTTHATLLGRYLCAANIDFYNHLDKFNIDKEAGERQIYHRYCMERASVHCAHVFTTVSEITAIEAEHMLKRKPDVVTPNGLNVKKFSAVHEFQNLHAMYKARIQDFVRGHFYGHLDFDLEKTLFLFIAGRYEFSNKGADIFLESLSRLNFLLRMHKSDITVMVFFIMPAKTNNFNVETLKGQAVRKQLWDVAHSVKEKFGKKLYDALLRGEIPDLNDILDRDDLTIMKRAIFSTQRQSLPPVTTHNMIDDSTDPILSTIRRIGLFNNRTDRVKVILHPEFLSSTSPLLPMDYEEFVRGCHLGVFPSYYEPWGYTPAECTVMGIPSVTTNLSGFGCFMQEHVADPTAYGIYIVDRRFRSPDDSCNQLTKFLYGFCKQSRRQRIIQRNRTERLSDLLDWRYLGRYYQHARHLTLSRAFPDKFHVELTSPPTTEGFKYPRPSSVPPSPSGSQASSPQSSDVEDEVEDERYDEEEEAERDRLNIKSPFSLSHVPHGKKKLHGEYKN
Sequence of human GYS2 (P46976 whole entry partner): as the sequence (P46976 whole entry partner) above

| Compound | IC50 [1] [µM] | IC50 [2] [µM] | IC50 [3] [µM] |
| --- | --- | --- | --- |
| CC(C)c1c(F)cc([C@@H](NC(=O)[C@@H]2CCC[C@@H]2C(=O)O)c2ccccc2)cc1F [Compound 8, (1S,2R)-2-(((S)-(3,5-difluoro-4-isopropylphenyl)(phenyl)methyl)carbamoyl)cyclopentane-1-carboxylic acid] | > 100 | 0.239 | 3.93 |
| O=C(O)[C@H]1CCC[C@H]1C(=O)N[C@@H](c1ccccc1)c1ccc(C2CCC2)cn1 [Compound 15, (1S,2R)-2-(((S)-(5-cyclobutylpyridin-2-yl)(phenyl)methyl)carbamoyl)cyclopentane-1-carboxylic acid] | > 100 | 0.497 | 8.49 |
| O=C(O)[C@H]1CCC[C@H]1C(=O)N[C@@H](c1ccccc1)c1ccc(C2CC2)c(F)c1 [Compound 17, (1S,2R)-2-(((S)-(4-cyclopropyl-3-fluorophenyl)(phenyl)methyl)carbamoyl)cyclopentane-1-carboxylic acid] | > 100 | 1.58 | 27.3 |
| O=C(O)[C@H]1CCC[C@H]1C(=O)N[C@@H](c1ccccc1)c1ccc(C2CCC2)c(F)c1 [Compound 18, (1S,2R)-2-(((S)-(4-cyclobutyl-3-fluorophenyl)(phenyl)methyl)carbamoyl)cyclopentane-1-carboxylic acid] | 28.6 | 0.384 | 16.6 |
| CC(C)c1ccc([C@@H](NC(=O)[C@@H]2CCC[C@@H]2C(=O)O)c2ccccc2NC(N)=O)cc1F [Compound 24, (1S,2R)-2-(((R)-(3-fluoro-4-isopropylphenyl)(2-ureidophenyl)methyl)carbamoyl)cyclopentane-1-carboxylic acid] | – | 2.82 | 92 |
| CC(C)c1ccc([C@@H](NC(=O)[C@@H]2CCC[C@@H]2C(=O)O)c2cccc3c2NC(=O)C3)cc1 [Compound 30, (1S,2R)-2-(((R)-(4-isopropylphenyl)(2-oxoindolin-7-yl)methyl)carbamoyl)cyclopentane-1-carboxylic acid] | – | 1.61 | 31.3 |
| O=C(O)[C@H]1CCC[C@H]1C(=O)N[C@@H](c1ccccc1)c1ccc(C2CCC2)cc1 [Compound 34, (1S,2R)-2-(((S)-(4-cyclobutylphenyl)(phenyl)methyl)carbamoyl)cyclopentane-1-carboxylic acid] | 67.1 | 0.426 | – |
| CC(C)c1ccc([C@@H](NC(=O)[C@@H]2CCC[C@@H]2C(=O)O)c2ccccc2)nc1 [Compound 36, (1S,2R)-2-(((S)-(5-isopropylpyridin-2-yl)(phenyl)methyl)carbamoyl)cyclopentane-1-carboxylic acid] | > 100 | 0.837 | – |

The remaining lines, values ahead:

| IC50 [1] [µM] | IC50 [2] [µM] | IC50 [3] [µM] | Compound |
| --- | --- | --- | --- |
| > 250 | 19.8 | – | CC(C)c1ccc(C(NC(=O)C2CCCC2C(=O)O)c2cccs2)cc1 (single isomer, unassigned) [Compound 43, (1R or 1S,2S or 2R)-2-(((S or R)-(4-isopropylphenyl)(thiophen-2-yl)methyl)carbamoyl)cyclopentane-1-carboxylic acid] |
| 11.7 | 12.9 | – | CC(C)c1ccc(C(NC(=O)C2CCCC2C(=O)O)c2cccs2)cc1 (single isomer, unassigned) [Compound 44, (1R or 1S,2S or 2R)-2-(((R or S)-(4-isopropylphenyl)(thiophen-2-yl)methyl)carbamoyl)cyclopentane-1-carboxylic acid] |
| > 250 | > 99.9 | – | CC(C)c1ccc(C(NC(=O)C2CCCC2C(=O)O)c2cccs2)cc1 (single isomer, unassigned) [Compound 46, (1S or 1R,2R or 2S)-2-(((S or R)-(4-isopropylphenyl)(thiophen-2-yl)methyl)carbamoyl)cyclopentane-1-carboxylic acid] |
| – | 1.52 | 65.6 | CC(C)c1ccc([C@@H](NC(=O)[C@@H]2CCC[C@@H]2C(=O)O)c2cccnc2N)cc1 [Compound 29, (1S,2R)-2-(((R)-(2-aminopyridin-3-yl)(4-isopropylphenyl)methyl)carbamoyl)cyclopentane-1-carboxylic acid] |
| – | 2.39 | > 100 | CC(C)c1ccc([C@@H](NC(=O)[C@@H]2CCC[C@@H]2C(=O)O)c2ccn[nH]2)cc1 [Compound 32, (1S,2R)-2-(((R)-(4-isopropylphenyl)(1H-pyrazol-5-yl)methyl)carbamoyl)cyclopentane-1-carboxylic acid] |
| 10.8 | 0.39 | – | Cc1ccccc1[C@H](NC(=O)[C@@H]1CCC[C@@H]1C(=O)O)c1ccc(C(C)C)cc1 [Compound 40, (1S,2R)-2-(((R)-(4-isopropylphenyl)(o-tolyl)methyl)carbamoyl)cyclopentane-1-carboxylic acid] |
| > 87.1 | 0.637 | – | CC(C)c1ccc([C@@H](NC(=O)[C@@H]2CCC[C@@H]2C(=O)O)c2ccccc2)cc1 [Compound 41, (1S,2R)-2-(((S)-(4-isopropylphenyl)(phenyl)methyl)carbamoyl)cyclopentane-1-carboxylic acid] |
| > 77.6 | 0.961 | – | CC(C)c1ccc([C@@H](NC(=O)[C@@H]2CCCC[C@@H]2C(=O)O)c2cccs2)cc1 [Compound 42, (1S,2R)-2-(((R)-(4-isopropylphenyl)(thiophen-2-yl)methyl)carbamoyl)cyclohexane-1-carboxylic acid] |
